Target: T1, Nuclear factor NF-kappa-B p105 subunit (Homo sapiens) (UniProt P19838)
T1 sequence (whole entry): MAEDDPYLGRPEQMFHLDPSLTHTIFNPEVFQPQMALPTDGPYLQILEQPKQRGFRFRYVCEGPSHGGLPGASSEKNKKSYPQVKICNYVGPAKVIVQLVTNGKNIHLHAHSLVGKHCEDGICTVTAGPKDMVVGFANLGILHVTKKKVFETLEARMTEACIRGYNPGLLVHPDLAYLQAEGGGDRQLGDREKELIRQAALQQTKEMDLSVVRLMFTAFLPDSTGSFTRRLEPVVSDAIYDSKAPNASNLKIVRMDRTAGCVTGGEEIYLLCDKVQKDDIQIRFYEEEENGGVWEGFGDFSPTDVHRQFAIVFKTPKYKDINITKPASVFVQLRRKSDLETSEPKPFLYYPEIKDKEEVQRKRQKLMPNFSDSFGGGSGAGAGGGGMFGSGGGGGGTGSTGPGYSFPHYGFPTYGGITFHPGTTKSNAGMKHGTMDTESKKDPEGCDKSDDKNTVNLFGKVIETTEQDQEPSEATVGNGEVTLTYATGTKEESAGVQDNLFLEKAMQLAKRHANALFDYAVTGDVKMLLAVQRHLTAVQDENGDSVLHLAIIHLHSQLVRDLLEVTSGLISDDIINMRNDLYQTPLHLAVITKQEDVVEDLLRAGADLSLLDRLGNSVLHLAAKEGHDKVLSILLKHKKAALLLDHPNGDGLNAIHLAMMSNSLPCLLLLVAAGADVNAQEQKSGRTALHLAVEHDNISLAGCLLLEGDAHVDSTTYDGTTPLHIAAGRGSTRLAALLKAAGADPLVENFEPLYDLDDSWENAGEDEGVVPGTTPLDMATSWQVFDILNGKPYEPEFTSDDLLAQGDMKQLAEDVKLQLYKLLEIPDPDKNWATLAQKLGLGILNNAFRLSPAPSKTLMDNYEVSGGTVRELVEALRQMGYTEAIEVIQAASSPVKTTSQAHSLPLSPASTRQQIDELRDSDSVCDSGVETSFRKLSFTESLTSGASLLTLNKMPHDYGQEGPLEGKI
Experiment: inhibitory effect on the DNA binding of Nuclear factor kappa B; Active

In the case of `Cc1cc(-c2ccc(/N=N/c3ccc4c(S(=O)(=O)O)cc(S(=O)(=O)O)c(N)c4c3O)c(C)c2)ccc1/N=N/c1ccc2c(S(=O)(=O)O)cc(S(=O)(=O)O)c(N)c2c1O`, the Concentration is reported as 100 µM.
